Source: patent US11584714B2 (priority 2018, dated 2023)
pKi: −log10 of the molar value. Where a name gives a salt, the structure may show the parent alone.

Biological target: MASP-2 (CCP1-CCP2-SP) (Homo sapiens (Human), UniProt O00187)
Assay: biochemical
Type: biochemical
Settings: not given

Sequence of MASP-2 (CCP1-CCP2-SP) (O00187 445-686): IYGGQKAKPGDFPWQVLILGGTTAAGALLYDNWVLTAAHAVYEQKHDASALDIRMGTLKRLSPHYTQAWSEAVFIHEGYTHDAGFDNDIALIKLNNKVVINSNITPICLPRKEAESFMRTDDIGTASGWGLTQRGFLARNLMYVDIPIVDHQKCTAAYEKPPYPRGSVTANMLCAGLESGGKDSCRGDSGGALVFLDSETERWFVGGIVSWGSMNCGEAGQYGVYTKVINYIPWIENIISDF

Row | SMILES | pKi
1 | N=C(N)c1ccc2[nH]c(-c3nc4ccccc4[nH]3)nc2c1 [compound 2009, 1H,1′H-[2,2′-bibenzo[d]imidazole-5-carboximidamidedihydrochloride] | < 4.60

Same assay, conditions: +Zn; read-out: MASP-2 Ki

Row | SMILES | pKi
2 | N=C(N)c1ccc2[nH]c(-c3nc4ccccc4[nH]3)nc2c1 [compound 2009, 1H,1′H-[2,2′-bibenzo[d]imidazole-5-carboximidamidedihydrochloride] | > 6.30

Same assay, conditions: MASP-2 inhibition versus thrombin

Row | SMILES | MASP-2 vs. thrombin selectivity
3 | C[C@H](NC(=O)[C@H](N)CCc1ccccc1)C(=O)NCc1ccc(C(=N)N)cc1 [compound 1024] | ** (5.0 to 25-fold)
4 | C[C@H](NC(=O)[C@H]1Cc2c([nH]c3ccccc23)CN1)C(=O)NCc1ccc(C(=N)N)cc1 [compound 1097] | *** (25 to 100-fold)
5 | C[C@H](NC(=O)[C@@H](CCc1ccccc1)NCc1ccc(C(=O)N2CCOCC2)cc1)C(=O)NCc1ccc(C(=N)N)cc1 [compound 1153] | **** (>100-fold)
6 | C[C@H](NC(=O)[C@H](N)CCc1cccc(Cl)c1)C(=O)NCc1ccc(C(=N)N)cc1 [compound 1081] | ** (5.0 to 25-fold)
7 | C[C@H](NC(=O)[C@H](N)CCc1cc(Cl)cc(Cl)c1)C(=O)NCc1ccc(C(=N)N)cc1 [compound 1118] | ** (5.0 to 25-fold)

Same assay, conditions: read-out: MASP-2 Ki

Row | SMILES | pKi
8 | N=C(N)c1ccc(CNC(=O)C(CF)NC(=O)[C@H](N)CCc2ccccc2)cc1 (stereo partly drawn) [compound 1050, (2R)-2-Amino-N-(1-((4-carbamimidoylbenzyl)amino)-3-fluoro-1-oxopropan-2-yl)-4-phenylbutanamide Dihydrochloride] | > 6.30
9 | C[C@H](NC(=O)[C@H](N)CCc1ccccc1)C(=O)NCc1cccc(Cl)c1 [compound 1021] | > 5.00
10 | C[C@H](NC(=O)[C@H](N)CCc1ccc(C(F)(F)F)cc1)C(=O)NCc1ccc(C(=N)N)cc1 [compound 1119, (R)-2-Amino-N—((S)-1-((4-carbamimidoylbenzyl)amino)-1-oxopropan-2-yl)-4-(4-(trifluoromethyl)phenyl)butanamide Dihydrochloride] | > 6.30
11 | C[C@H](NC(=O)[C@@H](CCc1ccccc1)NCc1ccc(N2CCNCC2)cc1)C(=O)NCc1ccc(C(=N)N)cc1 [compound 1148, (R)—N—((S)-1-((4-Carbamimidoylbenzyl)amino)-1-oxopropan-2-yl)-4-phenyl-2-((4-(piperazin-1-yl)benzyl)amino)butanamide] | > 6.30
12 | Cc1ccc(-c2c[nH]c(C(=O)N[C@@H](C)C(=O)NCc3ccc(C(=N)N)cc3)c2)cc1F [compound 1235, (S)—N-(1-((4-Carbamimidoylbenzyl)amino)-1-oxopropan-2-yl)-4-(3-fluoro-4-methylphenyl)-1H-pyrrole-2-carboxamide] | > 6.30
13 | C[C@H](NC(=O)[C@H]1C=C(c2ccccc2)CN1)C(=O)NCc1ccc(C(=N)N)cc1 [compound 1032] | > 6.30
14 | N[C@H](CCc1ccccc1)C(=O)N1CCC[C@H]1C(=O)NCc1cc(Cl)ccc1O [compound 1079, (S)-1-((R)-2-Amino-4-phenylbutanoyl)-N-(5-chloro-2-hydroxybenzyl)pyrrolidine-2-carboxamide] | > 6.30

Same assay, conditions: selectivity for MASP-2 inhibition versus thrombin

Row | SMILES | MASP-2 vs. thrombin selectivity
15 | C[C@H](NC(=O)[C@H](N)CCc1ccccc1)C(=O)NCc1cc(Cl)ccc1C#N [compound 1313, Trifluoroacetate salt] | * (≥1.0 to <5.0-fold)
16 | COc1cc(C[C@@H]2CN[C@@H](C(=O)N[C@@H](C)C(=O)NCc3cc(Cl)ccc3-n3cnnn3)C2)cc(OC)c1 [compound 1419, (2R,4S)—N—((S)-1-((5-Chloro-2-(JH-tetrazol-1-yl)benzyl)amino)-1-oxopropan-2-yl)-4-(3,5-dimethoxybenzyl)pyrrolidine-2-carboxamide Trifluoroacetate salt] | * (≥1.0 to <5.0-fold)
17 | Cc1ccc(-c2c[nH]c(C(=O)N[C@@H](C)C(=O)NCc3ccc(C(=N)N)cc3)c2)cc1F [compound 1235, (S)—N-(1-((4-Carbamimidoylbenzyl)amino)-1-oxopropan-2-yl)-4-(3-fluoro-4-methylphenyl)-1H-pyrrole-2-carboxamide] | *** (≥25 to <100-fold)

Biological target: human α-thrombin (Homo sapiens (Human), UniProt P00734)
Assay: Enzymatic assay for thrombin (Boc-VPR-AMC substrate)
Type: biochemical
Settings: Zn/EDTA condition not given; read-out: Thrombin Ki

Row | pKi | SMILES
18 | < 4.60 | CNC(=O)c1ccc2c(=O)n(Cc3ccccc3)c(=O)n(CC(=O)NCc3ccc(C(=N)N)cc3)c2c1 [compound 2018, 3-Benzyl-1-(2-((4-carbamimidoylbenzyl)amino)-2-oxoethyl)-N-methyl-2,4-dioxo-1,2,3,4-tetrahydroquinazoline-7-carboxamide]
19 | < 4.60 | N=C(N)c1ccc(CNC(=O)Cn2c(=O)n(Cc3ccccc3)c(=O)c3ccc(C(N)=O)cc32)cc1 [compound 2017, ((4-((2-(3-Benzyl-7-carbamoyl-2,4-dioxo-3,4-dihydroquinazolin-1(2H)-yl)acetamido)methyl)phenyl)(imino)methyl)-λ^5-azaneyl Acetate]
20 | < 4.60 | CCCCn1c(=O)c2ccccc2n(CC(=O)Nc2ccc(NC(C)=O)cc2)c1=O [compound 2020]
21 | < 4.60 | CCCCCn1c(=O)c2ccccc2n(CC(=O)Nc2ccc(NC(C)=O)cc2)c1=O [compound 2019]

Same assay, conditions: read-out: Thrombin Ki

Row | pKi | SMILES
22 | > 6.30 | N=C(N)c1ccc(CNC(=O)[C@@H]2CCN2C(=O)[C@H](NCC(=O)O)c2ccccc2)cc1 [compound 1100]
23 | < 4.60 | C[C@H](NC(=O)[C@H](N)CCc1ccccc1)C(=O)NCCCCNC(=N)N [compound 1010]
24 | < 4.60 | Cc1cc(N)nc(C)c1CNC(=O)[C@H](C)NC(=O)[C@H](N)CCc1ccccc1 [compound 1213]
25 | > 6.30 | CC(C)N(CC(=O)NCc1ccc(C(=N)N)cc1)C(=O)[C@H](NCC(=O)O)C1CCCCC1 [compound 1117]
26 | > 6.30 | N=C(N)c1ccc(CNC(=O)[C@H]2CCCCN2C(=O)[C@H](NCC(=O)O)C2CCCCC2)cc1 [compound 1154]
27 | < 4.60 | CCOC(=O)NC(=N)c1ccc(CNC(=O)[C@H](C)NC(=O)[C@H]2C[C@H](c3ccccc3)CN2)cc1 [compound 1294, Ethyl (imino(4-(((S)-2-((2R,4R)-4-phenylpyrrolidine-2-carboxamido)propanamido)methyl)phenyl)methyl)carbamate]
28 | < 4.60 | C[C@H](NC(=O)[C@H]1C[C@H](c2ccccc2)CN1)C(=O)NCc1ccc(C(=N)NO)cc1 [compound 1070]
29 | < 4.60 | C[C@H](NC(=O)[C@H](N)CCc1ccccc1)C(=O)NCc1cc(Cl)ccc1Cl [compound 1192]
30 | > 6.30 | CC(=O)N[C@@H](C(=O)N1CC[C@H]1C(=O)NCc1ccc(C(=N)N)cc1)C1CCCCC1 [compound 1077]
31 | > 6.30 | CC(C)(C)[C@@H](N)C(=O)N1CC[C@H]1C(=O)NCc1ccc(C(=N)N)cc1 [compound 1005]
32 | > 6.30 | C[C@H](NC(=O)[C@H](N)CCc1ccc(F)cc1)C(=O)NCc1ccc(C(=N)N)cc1 [compound 1047]
33 | > 6.30 | N=C(N)c1ccc(CNC(=O)[C@@H]2CCN2C(=O)[C@H](NCC(=O)O)C2CC2)cc1 [compound 1028, ((R)-2-((S)-2-((4-carbamimidoylbenzyl)carbamoyl)azetidin-1-yl)-1-cyclopropyl-2-oxoethyl)glycine]
34 | > 6.30 | N=C(N)c1ccc(CNC(=O)[C@@H]2CCN2C(=O)[C@H]2CC3CCCCC3N2)cc1 (some centres unmarked) [compound 1026]

Row | SMILES | pKi
35 | C[C@H](NC(=O)[C@H]1C[C@H](c2ccccc2)CN1)C(=O)NCc1ccc(N)nc1 [compound 1012] | < 4.60
36 | C[C@H](NC(=O)[C@H](N)CCc1ccccc1)C(=O)NCc1ccc(C(=N)NO)cc1 [compound 1157, (R)-2-Amino-N—((S)-1-((4-(N-hydroxycarbamimidoyl)benzyl)amino)-1-oxopropan-2-yl)-4-phenylbutanamide Dihydrochloride] | < 4.60
37 | N=C(N)NCCCNC(=O)[C@@H]1CCN1C(=O)[C@H](N)C1CCCCC1 [compound 1004, (S)-1-((R)-2-Amino-2-cyclohexylacetyl)-N-(3-guanidinopropyl)azetidine-2-carboxamide Hydrochloride] | > 6.30
38 | N=C(N)c1ccc(CNC(=O)[C@@H]2CCN2C(=O)[C@H]2CCCN2)cc1 [compound 1003] | > 6.30
